Results from patent US7173019B2, “Linked cyclitols and their polysulfated derivatives” (The Australian National University, priority 2001, dated 2007).
Read-outs that look alike come from different tables or passages of the source.

Tests used:
[1] = target: T1, human platelet heparanase (Homo sapiens, UniProt Q9Y251); assay: Heparanase inhibition, 3H-radiolabelled HS cleavage assay; type: biochemical; settings: for inhibition: read-out: Relative inhibition (%); for EC50: heparanase inhibition; for inhibition at 10 µg/mL: read-out: Inhibition (%) at 10 μg/ml
T1 construct: 10 ng of purified human platelet heparanase; from tissue; host or cells: human platelets
T1 sequence (Q9Y251 158-543 limits assumed): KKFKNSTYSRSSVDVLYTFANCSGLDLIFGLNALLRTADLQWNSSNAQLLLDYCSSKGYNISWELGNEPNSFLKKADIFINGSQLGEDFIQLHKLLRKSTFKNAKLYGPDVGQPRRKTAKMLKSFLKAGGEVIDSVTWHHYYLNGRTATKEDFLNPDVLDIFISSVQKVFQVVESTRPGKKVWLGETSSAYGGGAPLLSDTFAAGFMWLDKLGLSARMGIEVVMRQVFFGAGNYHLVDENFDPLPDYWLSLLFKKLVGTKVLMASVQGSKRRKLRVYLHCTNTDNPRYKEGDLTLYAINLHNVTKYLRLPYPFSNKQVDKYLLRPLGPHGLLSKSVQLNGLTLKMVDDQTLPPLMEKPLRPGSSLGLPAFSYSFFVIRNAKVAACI
T1 sequence (Q9Y251 36-109 limits assumed): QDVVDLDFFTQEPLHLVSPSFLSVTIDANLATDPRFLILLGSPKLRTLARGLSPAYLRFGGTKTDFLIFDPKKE
Procedure: Briefly, to an incubation mixture of […] containing ^3H-radiolabelled porcine mucosal HS […], 50 mM-sodium acetate buffer, pH 5.0, […] bovine serum albumin and the inhibitor to be tested, was added 10 ng of purified human platelet heparanase and the mixture incubated for 30 min. The reaction was terminated by freezing the assay tubes. The substrate was separated from the cleavage products on minicolumns of sepharose-bound histidine-rich glycoprotein (Freeman, C., and Parish, C. R. [1997], supra).
Inhibitory activity is based on a comparison with heparin with 100% inhibition at 30 μg/ml. The compounds were also tested at the same purity as in Example 15.

IL-8 = target: T2, IL-8 (Homo sapiens, UniProt P10145); assay: Biacore biosensor: inhibition of IL-8 binding to immobilised heparin and heparan sulfate; settings: inhibitor 1.0 μM, IL-8 0.068 μM
T2 sequence (P10145 21-99): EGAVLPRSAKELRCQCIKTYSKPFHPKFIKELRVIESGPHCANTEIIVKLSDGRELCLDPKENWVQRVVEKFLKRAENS
Procedure: (§1) Assays were performed using a Biacore™ 2000 optical biosensor obtained from Biacore AB, Uppsala, Sweden. The biosensor was operated in accordance with the manufacturer's instructions. Briefly, neutravidin was covalently coupled to the surface of CM5 chips of the biosensor and then either biotinylated heparin (1 μg/ml) or biotinylated heparan sulfate ([…]) bound to the immobilised neutravidin. Mixtures of a test compound and a growth factor or other effector compound were preincubated for 2 to 5 minutes and the mixtures then added to individual biosensor cuvettes. Binding of growth factor or effector compound to the heparin or heparan sulfate was then monitored for approximately 5 minutes with the biosensor.

bFGF = bFGF (Homo sapiens, UniProt P09038); assay: Biacore biosensor: inhibition of bFGF binding to immobilised heparin and heparan sulfate
Procedure: as §1
(§2) The tabulated values are the IC50 in μM or % inhibition of binding of the growth factor to the immobilised heparan sulfate (HS) or heparin.

VEGF = target: T3, VEGF (Homo sapiens, UniProt P15692); assay: Biacore biosensor: inhibition of VEGF binding to immobilised heparin and heparan sulfate; settings: inhibitor 0.034 μM, VEGF 0.025 μM
T3 sequence (P15692 27-191 isoform P15692-4): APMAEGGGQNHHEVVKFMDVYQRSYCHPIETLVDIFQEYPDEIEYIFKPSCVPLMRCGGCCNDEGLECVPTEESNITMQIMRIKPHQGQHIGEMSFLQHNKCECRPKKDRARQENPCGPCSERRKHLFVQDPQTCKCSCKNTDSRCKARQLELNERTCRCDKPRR
Procedure: as §1, §2

[2] = target: T4, human leukocyte Cathepsin G (Homo sapiens, UniProt P08311); assay: Cathepsin G inhibition, fluorogenic substrate, 96 well assay; type: biochemical; settings: human leukocyte cathepsin G 100 ng, 37° C., 60 min, pH 6.6; for IC50: read-out: Amount for 50% inhibition (converted)
T4 construct: human leukocyte Cathepsin G (100 ng protein); from tissue; host or cells: human leukocytes
T4 sequence (P08311 21-244): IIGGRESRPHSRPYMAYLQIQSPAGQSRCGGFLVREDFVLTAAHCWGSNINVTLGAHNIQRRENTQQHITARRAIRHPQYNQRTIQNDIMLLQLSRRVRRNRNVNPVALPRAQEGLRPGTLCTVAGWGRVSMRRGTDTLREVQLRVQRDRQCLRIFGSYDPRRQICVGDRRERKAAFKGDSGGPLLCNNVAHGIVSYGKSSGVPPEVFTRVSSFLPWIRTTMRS
Procedure: Cathepsin G activity was determined using a 96 well assay format in PVC microtitre U-bottom plates with activity determination by a fluorescence plate reader. Briefly, within a total incubation volume of 40 μl, human leukocyte Cathepsin G (100 ng protein) was added to a mixture of inhibitor and the fluorogenic substrate MeOSuc-ala-ala-pro-phe-AMAC in 50 mM-NaOAc buffer, pH 6.6 containing 50 mM NaCl and 0.1% (v/v) Brij 35. The mixture was incubated at 37° C. for 60 min, the reaction stopped by the addition of 40 μl of 250 mM acetic acid and the fluorescence determined with excitation at 360 nm and emitted light measured at 460 nm.
In this table, the linked cyclitol compound identifications are the same as those given in Section A above where the structures of the compounds are also given. With regard to the purity rating, a greater number of asterisks signifies a greater degree of purity with five asterisks signifying an essentially pure compound. The cathepsin G inhibition data are the concentrations of compounds required to inhibit the enzyme by 50%.

aFGF = aFGF (Homo sapiens, UniProt P05230); assay: Biacore biosensor: inhibition of aFGF binding to immobilised heparin and heparan sulfate; settings: inhibitor 0.034 μM, aFGF 0.025 μM
Procedure: as §1, §2

[3] = based on a comparison with heparin with 100% inhibition at 30 μg/ml
[4] = immobilised heparan sulfate, read-out: Inhibition of binding of IL-8 (HS)
[5] = immobilised heparin, read-out: Inhibition of binding of IL-8 (Hep)
[6] = immobilised heparan sulfate, inhibitor 0.034 μM, bFGF 0.034 μM, read-out: Inhibition of binding of bFGF (HS)
[7] = immobilised heparan sulfate, read-out: IC50, inhibition of bFGF binding (HS)
[8] = immobilised heparin, inhibitor 0.034 μM, bFGF 0.034 μM, read-out: Inhibition of binding of bFGF (Hep)
[9] = immobilised heparin, read-out: IC50, inhibition of bFGF binding (Hep)
[10] = immobilised heparan sulfate, read-out: Inhibition of binding of VEGF (HS)
[11] = immobilised heparin, read-out: Inhibition of binding of VEGF (Hep)
[12] = immobilised heparan sulfate, read-out: Inhibition of binding of aFGF (HS)
[13] = immobilised heparin, read-out: Inhibition of binding of aFGF (Hep)

bFGF, sequence (P09038 134-288 limits assumed, species assumed): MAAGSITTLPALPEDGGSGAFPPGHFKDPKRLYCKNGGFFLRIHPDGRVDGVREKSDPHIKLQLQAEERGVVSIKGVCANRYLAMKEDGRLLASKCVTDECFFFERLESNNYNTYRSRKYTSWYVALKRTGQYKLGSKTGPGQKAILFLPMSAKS
aFGF, sequence (P05230 whole entry, species assumed): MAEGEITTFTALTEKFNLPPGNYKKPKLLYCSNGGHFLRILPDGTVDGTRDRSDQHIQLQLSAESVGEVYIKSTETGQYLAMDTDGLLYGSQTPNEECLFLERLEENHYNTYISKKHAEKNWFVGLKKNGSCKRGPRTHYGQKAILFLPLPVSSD

Structure (SMILES)	inhibition [1, 3]	EC50 ([1]; read-out: EC50 (converted))	inhibition at 10 µg/mL [1]	inhibition at 1 µM (IL-8; [4])	inhibition at 1 µM (IL-8; [5])	inhibition at 0.034 µM (bFGF; [6])	IC50 (bFGF; [7])	inhibition at 0.034 µM (bFGF; [8])	IC50 (bFGF; [9])	inhibition at 0.034 µM (VEGF; [10])	inhibition at 0.034 µM (VEGF; [11])	IC50 [2]	inhibition at 0.034 µM (aFGF; [12])	inhibition at 0.034 µM (aFGF; [13])	other results
O=S(=O)(O)O[C@H]1[C@H](OS(=O)(=O)O)[C@@H](N(CCN([C@H]2C=C[C@@H](OS(=O)(=O)O)[C@@H](OS(=O)(=O)O)[C@@H]2OS(=O)(=O)O)[C@H]2C=C[C@@H](OS(=O)(=O)O)[C@@H](OS(=O)(=O)O)[C@@H]2OS(=O)(=O)O)[C@H]2C=C[C@@H](OS(=O)(=O)O)[C@@H](OS(=O)(=O)O)[C@@H]2OS(=O)(=O)O)C=C[C@H]1OS(=O)(=O)O [Compound 4f]	60%	11100 nM	44%	38%	48%	19%	240 nM	15%	> 250 nM	0%	0%	189 nM	68%	65%	
O=S(=O)(O)O[C@H]1[C@H](OS(=O)(=O)O)[C@@H](N(CCCCN([C@H]2C=C[C@@H](OS(=O)(=O)O)[C@@H](OS(=O)(=O)O)[C@@H]2OS(=O)(=O)O)[C@H]2C=C[C@@H](OS(=O)(=O)O)[C@@H](OS(=O)(=O)O)[C@@H]2OS(=O)(=O)O)[C@H]2C=C[C@@H](OS(=O)(=O)O)[C@@H](OS(=O)(=O)O)[C@@H]2OS(=O)(=O)O)C=C[C@H]1OS(=O)(=O)O [Compound 4g]	57%	14100 nM	42%	42%	67%	44%		31%	> 250 nM	10%	21%	128 nM	43%	44%	
O=S(=O)(O)OC(CN([C@H]1C=C[C@@H](OS(=O)(=O)O)[C@@H](OS(=O)(=O)O)[C@@H]1OS(=O)(=O)O)[C@H]1C=C[C@@H](OS(=O)(=O)O)[C@@H](OS(=O)(=O)O)[C@@H]1OS(=O)(=O)O)CN([C@H]1C=C[C@@H](OS(=O)(=O)O)[C@@H](OS(=O)(=O)O)[C@@H]1OS(=O)(=O)O)[C@H]1C=C[C@@H](OS(=O)(=O)O)[C@@H](OS(=O)(=O)O)[C@@H]1OS(=O)(=O)O [Compound 4l]	48%	17000 nM		46%	52%	43%		34%		0%	0%	292 nM	47%	54%	
O=S(=O)(O)O[C@H]1[C@H](OS(=O)(=O)O)[C@@H](N(CCCN([C@H]2C=C[C@@H](OS(=O)(=O)O)[C@@H](OS(=O)(=O)O)[C@@H]2OS(=O)(=O)O)[C@H]2C=C[C@@H](OS(=O)(=O)O)[C@@H](OS(=O)(=O)O)[C@@H]2OS(=O)(=O)O)[C@H]2C=C[C@@H](OS(=O)(=O)O)[C@@H](OS(=O)(=O)O)[C@@H]2OS(=O)(=O)O)C=C[C@H]1OS(=O)(=O)O [Compound 4a]	60%	16200 nM	37%	38%	48%	29%	110 nM	20%	> 250 nM	4%	5%	162 nM	73%	74%	
O=S(=O)(O)OC1C(OS(=O)(=O)O)C(OS(=O)(=O)O)C(N(Cc2cccc(CN(C3C(OS(=O)(=O)O)C(OS(=O)(=O)O)C(OS(=O)(=O)O)C(OS(=O)(=O)O)C3OS(=O)(=O)O)C3C(OS(=O)(=O)O)C(OS(=O)(=O)O)C(OS(=O)(=O)O)C(OS(=O)(=O)O)C3OS(=O)(=O)O)c2)C2C(OS(=O)(=O)O)C(OS(=O)(=O)O)C(OS(=O)(=O)O)C(OS(=O)(=O)O)C2OS(=O)(=O)O)C(OS(=O)(=O)O)C1OS(=O)(=O)O (centres unmarked) [Compound 5d]							38 nM		160 nM						Relative inhibition (%) [1, 3]: 100%; EC50 [1]: 6 µg/mL; Inhibition of binding of IL-8 (HS) (IL-8; immobilised heparan sulfate): 62% (HS); Inhibition of binding of IL-8 (Hep) (IL-8; immobilised heparin): 71% (Hep); Inhibition of binding of bFGF (HS) (bFGF; immobilised heparan sulfate, inhibitor 0.034 μM, bFGF 0.034 μM): 48% (HS); Inhibition of binding of bFGF (Hep) (bFGF; immobilised heparin, inhibitor 0.034 μM, bFGF 0.034 μM): 35% (Hep); Inhibition of binding of VEGF (HS) (VEGF; immobilised heparan sulfate): 39% (HS); Inhibition of binding of VEGF (Hep) (VEGF; immobilised heparin): 54% (Hep); Amount for 50% inhibition [2]: 0.53 µg/mL; Inhibition of binding of aFGF (HS) (aFGF; immobilised heparan sulfate): 67% (HS); Inhibition of binding of aFGF (Hep) (aFGF; immobilised heparin): 72% (Hep)
O=S(=O)(O)O[C@H]1[C@H](OS(=O)(=O)O)[C@@H](N(CCCCCCCN([C@H]2C=C[C@@H](OS(=O)(=O)O)[C@@H](OS(=O)(=O)O)[C@@H]2OS(=O)(=O)O)[C@H]2C=C[C@@H](OS(=O)(=O)O)[C@@H](OS(=O)(=O)O)[C@@H]2OS(=O)(=O)O)[C@H]2C=C[C@@H](OS(=O)(=O)O)[C@@H](OS(=O)(=O)O)[C@@H]2OS(=O)(=O)O)C=C[C@H]1OS(=O)(=O)O [Compound 4h]	48%	20000 nM	33%	54%	52%	48%		40%		55%	68%	318 nM	30%	28%	
